What all share (assay): growth of human tumour cells (NCI), 48 h
Test [1] deals with COLO 205 colon.
In test [2] the test system is K-562 leukemia.
The subject of test [3] is NCI-H522 lung.
The test system of test [4] is NCI/ADR-RES ovarian.
Test [5] deals with OVCAR-5 ovarian.
Test [6] concerns SF-268 CNS.
Test [7] relates to SW-620 colon.
For test [8], the system named is TK-10 renal.
The subject of test [9] is CAKI-1 renal.
For test [10], the system named is SNB-75 CNS.

Several values for one entry are separate records, joined by “and”; a condition that tells them apart may be missing. Equal entries are not always repeated.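 Each compound was tested at five concentrations against cells in 96-well plates for 48 hours. At the GI50, growth is halved. TGI is the concentration that stops growth completely.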

For `CC(=O)OC1C2CCC3CC2C2(SCCS2)C31` (centres undefined), the TGI in [1], in test [2], in [3], in test [4], in test [5] and in test [6] was greater than 100 µM in each case. Further, the TGI in test [7] and in test [8] was greater than 100 µM throughout.

Take `CSCSCC(CO)NC(=O)/C=C\c1c(C)[nH]c(=O)[nH]c1=O` (centres undefined): the GI50 in test [9] was 2.04 µM. Besides, the TGI was 33.3 µM in test [9]; 78.9 µM in [1]; 111 µM in test [2]; 8.48 µM in test [3]; 296 µM in [4]; 277 µM in test [5]. Further, the TGI in test [6] came out at 112 µM; in test [10], 118 µM; in [7] it was 207 µM.

`COc1ccc(-c2nc(-c3cnccn3)n(C/C=C/c3ccccc3)n2)cc1`: the TGI is greater than 100 µM in [1]; greater than 100 µM in test [2]; greater than 100 µM in [3]; greater than 100 µM in [4]; greater than 100 µM in test [5]; 51.7 µM in test [10]. For the same molecule, the TGI in test [7] is greater than 100 µM.

For `O=C(O)C12C=CC(C1)c1ccccc12` (centres undefined), the TGI in test [9], in [1], in test [2], in [5], in test [6] and in test [7] was greater than 100 µM throughout. For the same molecule, in test [8], the TGI was greater than 100 µM.

On to `COc1cccc(C2C(C#N)=C(N)Oc3cc(OCCCCCC[P+](c4ccccc4)(c4ccccc4)c4ccccc4)ccc32)c1` (centres undefined), for which the GI50 was 1.68 µM in [9]; 0.334 µM in [2]; 0.515 µM in test [3]; 11.9 µM in [4]; 1.35 µM in test [5]; 0.21 µM in [10]. Moreover, in [8], the GI50 is 1.46 µM. In addition, the TGI is 3.48 µM in test [9]; greater than 23.7 µM in [2]; 2.49 µM in test [3]; 78.3 µM in [4]; 3.15 µM in test [5]; 2.11 µM in [10]. This molecule returned a TGI in test [8] of 2.99 µM.

For `CC(C)(C)N=C1C(=O)C2(C)CCC1C2(C)C` (centres undefined), the TGI in [9], in test [1], in test [2], in [4], in test [5] and in test [6] was greater than 100 µM throughout. The TGI in [7] and in test [8] was greater than 100 µM in each case.

On to `CCC1OC2(C)CC(C#N)(C#N)C1(C#N)C(=N)O2` (centres undefined), for which the TGI in [9], in test [1], in [2], in test [5], in test [6] and in test [10] was greater than 100 µM each time. Besides, the TGI in test [7] and in test [8] was greater than 100 µM in each case.

Regarding `CCOC(=O)c1cnc2n(c1=O)[C@H]1CCCC[C@@H]1N2`, the TGI in test [9], in [1], in test [2], in test [3], in [4] and in test [5] was greater than 100 µM in each case. Besides, the TGI in test [6], in test [10] and in [7] was greater than 100 µM each time.

For `CC1(C)Cc2ccccc2C(C)(Cl)C(=O)N1` (centres undefined), the TGI in test [9], in test [1], in test [2], in test [4], in test [5] and in test [6] was greater than 10 µM throughout. Also, the TGI in test [7] and in test [8] was greater than 10 µM each time.

With `C=CCN1C(=O)C[C@H](Cc2ccccc2)NC(=O)C[C@H](Cc2ccccc2)N(CC=C)C(=O)C[C@H](Cc2ccccc2)NC(=O)C[C@@H]1Cc1ccccc1`, the TGI is greater than 100 µM in test [9]; 5.87 µM in [1]; greater than 100 µM in test [2]; greater than 100 µM in [4]; greater than 100 µM in [5]; greater than 100 µM in test [6]. In addition, the TGI is 50.1 µM in test [10], greater than 100 µM in [7] and greater than 100 µM in test [8].

Turning to `Cc1c2oc(=O)c(C#N)cc2c2ccccn12`, the TGI in test [9], in test [1], in [2], in test [4], in test [5] and in [6] was greater than 100 µM throughout. Besides, the TGI in test [10], in [7] and in [8] was greater than 100 µM each time.

As for `O=C1OC2(CCCCC2)C(Oc2ccc(Cl)cc2)=C1F`, the TGI is greater than 100 µM in test [9]; greater than 100 µM in test [1]; greater than 100 µM in test [2]; 95.9 µM in [3]; greater than 100 µM in [5]; greater than 100 µM in test [6]. Moreover, the TGI in test [10], in [7] and in test [8] was greater than 100 µM in each case.

As for `C[C@H](NC(=O)C(C)(Cc1ccc(O)cn1)NC(=O)c1ccccc1)c1ccccc1` (some centres undefined), the TGI in test [9], in test [1], in [2], in test [3], in [4] and in test [5] was greater than 100 µM throughout. Also, the TGI in test [6], in test [7] and in test [8] was greater than 100 µM in each case.

Consider `CCCCn1c(-c2ccccc2)cs/c1=N\NC(=O)Cn1c(C)nc2ccccc21`, for which the TGI in test [9] is greater than 100 µM; in [1] it was 38.2 µM; in test [2], greater than 100 µM; in test [3], greater than 100 µM; in [5] it was greater than 100 µM; in test [10] it was greater than 100 µM. Further, the TGI in test [7] and in [8] was greater than 100 µM in each case.

Consider `O=C(NNC(=O)c1ccc(Cl)cc1NC(=O)C12CC3CC(CC(C3)C1)C2)c1ccc(Cl)cc1`, for which the TGI is 73.6 µM in test [9]; 27.6 µM in [1]; greater than 100 µM in test [2]; 36 µM in [3]; 63.1 µM in test [4]; 74.4 µM in [5]. In addition, the TGI was greater than 100 µM in [6], greater than 100 µM in [7] and 57.2 µM in [8].

Regarding `Cc1c2cc[n+](C)cc2c(C)c2c1[nH]c1ccc(OCC(F)(F)F)cc12`, the TGI in test [9] was greater than 64.7 µM; in test [2] it was greater than 56.6 µM; in test [3], 5.64 µM and 4.83 µM; in test [5] it was greater than 100 µM; in test [6] it was 0.638 µM; in test [10], 2.62 µM and 0.833 µM. Further, the TGI in [7] and in test [8] was greater than 100 µM each time. For the same molecule, the GI50 in test [5] is 12 µM and > 100 µM; in [10], 0.837 µM and 0.271 µM; in test [8] it was 13.5 µM and > 100 µM.

With `COc1c(NC(C)=O)c2ccccc2c2ccccc12`, the TGI in [2], in test [3], in test [4], in [5], in test [6] and in test [7] was greater than 100 µM in each case. In addition, the TGI in test [8] is greater than 100 µM.

Take `C/C(N=NS(=O)(=O)c1c(C)cc(C)cc1C)=C1\C=CC=CN1O`: the TGI in test [9], in [2], in test [3], in test [5], in test [6] and in test [10] was greater than 100 µM in each case. For the same molecule, the TGI in [7] and in [8] was greater than 100 µM throughout.

Turning to `Clc1cc(Cl)nc(Nc2ccc3c(c2)CCC3)n1`, the TGI in [9] was 75.7 µM; in test [1], 46.9 µM; in test [2], 46 µM; in test [4], greater than 100 µM; in test [5] it was greater than 100 µM; in [6], greater than 100 µM. Also, the TGI in test [7] and in test [8] was greater than 100 µM throughout.

`C=C1C(=O)OC2C[C@@]3(C)CCCC(=C)C3CC12` (some centres undefined): the TGI stood at 19.4 µM in [9]; 6.85 µM in [1]; 3.65 µM in test [3]; 33.6 µM in test [5]; 28.2 µM in [6]; 20.1 µM in test [10]. In addition, the TGI in test [7] was 14.4 µM; in test [8] it was 23.5 µM.

Turning to `O=Cc1c2c(cc3c1CC1(C3)Cc3cc4c(c(C=O)c3C1)CCC4)CCC2`, the TGI was 57.4 µM in [1]; 63.7 µM in test [2]; greater than 100 µM in test [3]; greater than 100 µM in test [4]; greater than 100 µM in test [5]; 98.8 µM in test [8].

For `O=c1[nH]c(=S)[nH]c2c1CCCN2`, the TGI in test [9], in test [1], in test [3], in test [5], in [6] and in test [10] was greater than 100 µM each time. Moreover, the TGI in test [7] and in [8] was greater than 100 µM each time.

Consider `NCCCNCCSP(=O)(O)O`, for which the TGI is greater than 750 µM in [9]; greater than 657 µM in [1]; greater than 750 µM in [2]; 738 µM in [3]; greater than 750 µM in test [4]; greater than 750 µM in [5]. For the same molecule, the TGI in [6], in test [10] and in test [7] was greater than 750 µM throughout.

In the case of `O=Cn1c2ccccc2c2ccccc21`, the TGI in [1], in test [2], in test [3], in test [5], in test [6] and in test [7] was greater than 100 µM in each case. Further, the TGI in test [8] was greater than 100 µM.

For the molecule `COc1cc(/C=C2\N=C(c3ccccc3)N(c3cc4cc(Sc5ccccc5)ccc4[nH]3)C2=O)ccc1O`, the TGI in test [9] was greater than 50 µM; in [1], greater than 50 µM; in test [2], greater than 50 µM; in [3] it was greater than 50 µM; in test [4] it was 36.1 µM; in [5], greater than 50 µM. The TGI in [10] and in [7] was greater than 50 µM each time.

With `c1ccc(C2N=C(c3ccccn3)C(c3ccccn3)=NC2c2ccccc2)cc1` (centres undefined), the TGI in [9], in test [1], in [2], in test [3], in test [5] and in test [6] was greater than 100 µM in each case. Further, the TGI in test [7] and in test [8] was greater than 100 µM each time.

As for `Cc1ccc(N=Nc2c(O)ccc3ccccc23)c(C)c1`, the TGI in test [9], in test [1], in test [2], in test [4], in test [5] and in test [6] was greater than 100 µM throughout. Also, the TGI in test [10], in test [7] and in test [8] was greater than 100 µM each time.

Take `CN(C)Cc1cc(/C=C/C(=O)c2ccc(Br)cc2)cc(CN(C)C)c1O`: the TGI is 23.8 µM in test [9]; 30.1 µM in [1]; greater than 100 µM in [2]; greater than 100 µM in test [4]; greater than 100 µM in test [5]; 33.4 µM in test [6]. The values for the TGI in [10], in [7] and in [8] were 43.7 µM, 52 µM and 25.7 µM, respectively.

Consider `COC(=O)c1c(CC(=O)OC(C)C)cc2n(c1=O)Cc1c-2nc2ccccc2c1OC`, for which the TGI in test [9], in [1], in test [2], in test [3], in test [5] and in [6] was greater than 100 µM throughout. Further, the TGI in [10], in test [7] and in test [8] was greater than 100 µM in each case.

Turning to `Cc1cc2ccccc2oc(=O)/c1=N\Nc1ccccc1`, the TGI in test [9], in test [1], in test [2], in [3], in [4] and in test [5] was greater than 100 µM each time. Also, the TGI in [10] is 63.8 µM; in test [7], greater than 100 µM.

With `O=C(NNC(=O)c1ccncc1)C(=O)Nc1cc(Cl)c(Cl)cc1Cl`, the TGI in test [9], in [2], in test [3], in [4], in test [5] and in test [6] was greater than 100 µM throughout. The TGI in [10], in test [7] and in test [8] was greater than 100 µM in each case.
